From US7741493B2, “Heterocyclic compounds as P2X7 ion channel blockers” (Aventis Pharmaceuticals Inc., priority 2003, dated 2010)
Where a name gives a salt, the structure may show the parent alone.

biological target: T1, P2X7 (Homo sapiens, UniProt Q99572); assay: YO-PRO-1 dye uptake assay in U373 cells stably expressing P2X7; format: cell-based; set-up: The complete open reading frame of human P2X7 was amplified from Incyte clone 148057; expressed in transfected cells; conditions: dye uptake through P2X7, U373 cells, 300 μM BzATP, 5 μM YO-PRO-1, test compounds 30 nM to 3 μM; read-out: IC50
T1 sequence (Q99572 1-595): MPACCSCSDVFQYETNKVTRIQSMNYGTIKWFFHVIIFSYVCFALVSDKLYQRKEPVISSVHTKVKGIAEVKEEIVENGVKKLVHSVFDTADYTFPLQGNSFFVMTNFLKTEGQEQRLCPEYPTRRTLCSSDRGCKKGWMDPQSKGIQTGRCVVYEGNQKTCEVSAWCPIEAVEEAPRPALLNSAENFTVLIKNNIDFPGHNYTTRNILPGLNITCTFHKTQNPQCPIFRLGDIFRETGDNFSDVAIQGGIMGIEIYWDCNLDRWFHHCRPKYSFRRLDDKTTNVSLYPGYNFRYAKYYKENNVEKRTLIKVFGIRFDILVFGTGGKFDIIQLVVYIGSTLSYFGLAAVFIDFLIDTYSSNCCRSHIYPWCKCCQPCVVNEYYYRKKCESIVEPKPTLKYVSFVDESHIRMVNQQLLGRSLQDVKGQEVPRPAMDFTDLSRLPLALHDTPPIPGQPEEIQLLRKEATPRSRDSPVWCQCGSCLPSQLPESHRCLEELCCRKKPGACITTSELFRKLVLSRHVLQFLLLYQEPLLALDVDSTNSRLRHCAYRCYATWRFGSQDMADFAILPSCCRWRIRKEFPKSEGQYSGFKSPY
Method: Following a 24-hr exposure to DNA, cells were trypsinized and re-seeded at low density in the presence of […] G418. After incubation for 2 weeks, isolated clones were selected with cloning cylinders and replated in […] G418. Cell clones were then expanded. Clones were screened for P2X7 by applying ATP and recording the resultant current using patch clamp electrophysiology.
U373 cells stably expressing P2X7 were used to screen drugs via a dye uptake assay. Cells were plated overnight on collagen coated 96-well plates at a density of 35,000 cells per well. The following day, culture media was replaced with Mg^++ and Ca^++-free Hank's balanced salt solution and various concentrations of test compounds ranging from 30 nM to 3 μM. Cells were then allowed to incubate with test compounds at 37° C. for 20 minutes. Following this incubation period YO-PRO-1 dye (Molecular Probes, Eugene, Oreg., final concentration 5 μM) and 2′-& 3′-O-(4-Benzolybenzoyl)-Adenosine 5′-triphosphate (Sigma Chemical, St Louis, Mo., final concentration 300 μM) were added to the cells sequentially. Cells were then incubated at 37° C. for 1.5 hours. […] Fluorescence in the presence of test substances was compared to that in the absence of test substances (control).

In order of rising IC50:
1. CC(C)(CC1=N[C@@H](c2ccccc2)[C@@H](c2ccccc2)N1)c1ccccc1  10 nM
2. C[C@@H](CC1=N[C@@H](c2ccccc2)[C@@H](c2ccccc2)N1)c1ccccc1  13 nM
3. C[C@]1(c2ccccc2)N=C(Cc2ccc(F)cc2F)N[C@H]1c1ccccc1 (relative stereo) [2-(2,4-Difluorobenzyl)-cis-4,5-diphenyl-4-methyl-4,5-dihydro-1H-imidazole trifluoroacetate]  16 nM
4. C[C@]1(c2ccccc2)N=C(Cc2ccc(F)c(F)c2)N[C@H]1c1ccccc1 (relative stereo) [2-(3,4-Difluorobenzyl)-cis-4,5-diphenyl-4-methyl-4,5-dihydro-1H-imidazole trifluoroacetate]  19 nM
5. C[C@@]1(c2ccccc2)N=C(CCc2ccccc2)N[C@@H]1c1ccccc1 (relative stereo) [cis-4,5-diphenyl-4-methyl-2-(2-phenylethyl)-4,5-dihydro-1H-imidazole]  22 nM
6. C[C@@]1(c2cccc(F)c2)N=C(Cc2ccc(F)cc2)N[C@@H]1c1cccc(F)c1 (relative stereo) [2-(4-Fluorobenzyl)-cis-4,5-bis-(3-fluorophenyl)-4-methyl-4,5-dihydro-1H-imidazole trifluoroacetate]  32 nM
7. C[C@@]1(c2cccc(F)c2)N=C(NCc2ccc(F)cc2)N[C@@H]1c1cccc(F)c1  37 nM
8. C[C@]1(c2ccccc2)N=C(Cc2cccc(Cl)c2)N[C@H]1c1ccccc1 (relative stereo) [2-(3-Chlorobenzyl)-cis-4,5-diphenyl-4-methyl-4,5-dihydro-1H-imidazole trifluoroacetate]  42 nM
9. C[C@]1(c2ccccc2)N=C(Cc2ccc(F)cc2)N[C@H]1c1ccccc1 (relative stereo) [2-(4-Fluorobenzyl)-cis-4,5-diphenyl-4-methyl-4,5-dihydro-1H-imidazole trifluoroacetate]  44 nM
10. C[C@@]1(c2cccc(F)c2)N=C(NCc2cccc(F)c2)N[C@@H]1c1cccc(F)c1  49 nM
11. C[C@@]1(c2ccccc2)N=C(NCc2ccc(F)cc2)N[C@@H]1c1ccccc1 (relative stereo) [(cis-4,5-Diphenyl-4-methyl-4,5-dihydro-1H-imidazol-2-yl)-(4-fluorobenzyl)amine hydrochloride]  63 nM
12. C[C@@]1(c2cccc(F)c2)N=C(CCc2ccccc2)N[C@@H]1c1cccc(F)c1 (relative stereo) [2-Phenethyl-cis-4,5-bis-(3-fluorophenyl)-4-methyl-4,5-dihydro-1H-imidazole hydrochloride]  66 nM
13. CC(C1=N[C@](C)(c2ccccc2)[C@H](c2ccccc2)N1)c1ccccc1 (relative stereo) [2-(1-Phenyl-1-ethyl)-cis-4,5-diphenyl-4-methyl-4,5-dihydro-1H-imidazole trifluoroacetate]  68 nM
14. C[C@@]1(c2ccccc2)N=C(COc2cccc(F)c2)N[C@@H]1c1ccccc1 (relative stereo) [2-[(3-Fluorophenoxy)methyl]-cis-4,5-diphenyl-4-methyl-4,5-dihydro-1H-imidazole trifluoroacetate]  104 nM
15. C[C@@]1(c2ccc(F)cc2)N=C(NCc2ccc(F)cc2)N[C@@H]1c1ccc(F)cc1  139 nM
16. CC(OCC1=N[C@@](C)(c2ccccc2)[C@@H](c2ccccc2)N1)C1CCCC1 (relative stereo) [2-[(1-Cyclopentyl-1-ethoxy)methyl]-cis-4,5-diphenyl-4-methyl-4,5-dihydro-1H-imidazole hydrochloride]  160 nM
17. C[C@@]1(c2ccccc2)N=C(COCC2CCCC2)N[C@@H]1c1ccccc1 (relative stereo) [2-[(Cyclopentylmethoxy)methyl]-cis-4,5-diphenyl-4-methyl-4,5-dihydro-1H-imidazole hydrochloride]  194 nM
18. C[C@]1(c2ccccc2)N=C(OCC2CCCCC2)N[C@H]1c1ccccc1 (relative stereo) [2-(Cyclohexylmethoxy)-cis-4,5-diphenyl-4-methyl-4,5-dihydro-1H-imidazole trifluoroacetate]  275 nM
19. CC(C1=N[C@](C)(c2ccccc2)[C@H](c2ccccc2)N1)c1ccc(Cl)cc1 (relative stereo) [2-[1-(4-Chlorophenyl)-1-ethyl]-cis-4,5-diphenyl-4-methyl-4,5-dihydro-1H-imidazole trifluoroacetate]  331 nM
20. Fc1ccc(CNC2=N[C@@H](c3ccc(F)cc3)[C@@H](c3ccc(F)cc3)N2)cc1  338 nM
21. C[C@@]1(c2ccc(F)cc2)N=C(NCc2cccc(F)c2)N[C@@H]1c1ccc(F)cc1  353 nM
22. CC(Oc1ccccc1)C1=N[C@@](C)(c2ccccc2)[C@@H](c2ccccc2)N1 (relative stereo) [2-(1-Phenoxyethyl)-cis-4,5-diphenyl-4-methyl-4,5-dihydro-1H-imidazole trifluoroacetate]  356 nM
23. CC(OCC1=N[C@@](C)(c2ccccc2)[C@@H](c2ccccc2)N1)C1CC1 (relative stereo) [2-[(1-Cyclopropyl-1-ethoxy)methyl]-cis-4,5-diphenyl-4-methyl-4,5-dihydro-1H-imidazole trifluoroacetate]  397 nM
24. C[C@@]1(c2ccccc2)N=C(COc2ccccc2)N[C@@H]1c1ccccc1 (relative stereo) [2-[(Phenoxy)methyl]-cis-4,5-diphenyl-4-methyl-4,5-dihydro-1H-imidazole trifluoroacetate]  405 nM
25. C[C@@]1(c2ccccc2)N=C(COC2CCCC2)N[C@@H]1c1ccccc1 (relative stereo) [2-[(Cyclopentyloxy)methyl]-cis-4,5-diphenyl-4-methyl-4,5-dihydro-1H-imidazole hydrochloride]  487 nM
26. C[C@@]1(c2ccccc2)N=C(COC2CCOc3ccccc32)N[C@@H]1c1ccccc1 (stereo partly drawn)  490 nM
27. C[C@@]1(c2ccccc2)N=C(CSCc2ccccc2)N[C@@H]1c1ccccc1 (relative stereo) [cis-4,5-diphenyl-4-methyl-2-[(benzylsulfanyl)methyl]-4,5-dihydro-1H-imidazole]  525 nM
28. CC(C)(C1=N[C@@H](c2ccccc2)[C@@H](c2ccccc2)N1)c1ccc(Cl)cc1  537 nM
29. CC(Cc1ccccc1)C1=N[C@@H](c2ccccc2)[C@@H](c2ccccc2)N1 (relative stereo) [2-[1-Methyl-2-phenylethyl]-cis-4,5-diphenyl-4,5-dihydro-1H-imidazole trifluoroacetate]  570 nM
30. C[C@@]1(c2ccccc2)N=C(COCC2CC2)N[C@@H]1c1ccccc1 (relative stereo) [2-[[(Cyclopropyl)methoxy]methyl]-cis-4,5-diphenyl-4-methyl-4,5-dihydro-1H-imidazole trifluoroacetate]  676 nM
31. C[C@@]1(c2ccccc2)N=C(COC2CCC2)N[C@@H]1c1ccccc1 (relative stereo) [2-[(Cyclobutoxy)methyl]-cis-4,5-diphenyl-4-methyl-4,5-dihydro-1H-imidazole trifluoroacetate]  722 nM
32. C#CC(CCC)OCC1=N[C@@](C)(c2ccccc2)[C@@H](c2ccccc2)N1 (relative stereo) [2-[(1-Ethynyl-1-butoxy)methyl]-cis-4,5-diphenyl-4-methyl-4,5-dihydro-1H-imidazole hydrochloride]  739 nM
33. C[C@@]1(c2ccccc2)N=C(COc2ccccc2Cl)N[C@@H]1c1ccccc1 (relative stereo) [2-[(2-Chlorophenoxy)methyl]-cis-4,5-diphenyl-4-methyl-4,5-dihydro-1H-imidazole hydrochloride]  743 nM
